Patent publication US20230226231A1, “CONJUGATED AND LABELLED APELIN, PREPARATION AND USES THEREOF” (UNIVERSITE D'AIX MARSEILLE, priority 2020, published 2023)

Columns and labels:
[1] = test system: Human colon adenocarcinoma xenografts (T84 cells); assay: MicroPET imaging in ectopic mouse model of human colon adenocarcinoma, baseline and blocking; type: in vivo, mice
Description: Human colon adenocarcinoma xenografts were established by subcutaneous injections of 1×10^6 T84 cells into 6-week-old male Swiss nude mice (Charles River) under 2% isoflurane anesthesia.
PET images were acquired 1 h after IV injection on a Mediso NanoPET/CT under 2% isoflurane anesthesia.

APJ = molecular target: T1, APJ (Homo sapiens, UniProt P35414); assay: Autoradiography with blocking strategy on T84 cells; type: cell-based; details: 100-fold excess of unconjugated Apelin13(F13A)
T1 construct: host or cells: T84 human colon adenocarcinoma cells
T1 sequence (P35414 1-380): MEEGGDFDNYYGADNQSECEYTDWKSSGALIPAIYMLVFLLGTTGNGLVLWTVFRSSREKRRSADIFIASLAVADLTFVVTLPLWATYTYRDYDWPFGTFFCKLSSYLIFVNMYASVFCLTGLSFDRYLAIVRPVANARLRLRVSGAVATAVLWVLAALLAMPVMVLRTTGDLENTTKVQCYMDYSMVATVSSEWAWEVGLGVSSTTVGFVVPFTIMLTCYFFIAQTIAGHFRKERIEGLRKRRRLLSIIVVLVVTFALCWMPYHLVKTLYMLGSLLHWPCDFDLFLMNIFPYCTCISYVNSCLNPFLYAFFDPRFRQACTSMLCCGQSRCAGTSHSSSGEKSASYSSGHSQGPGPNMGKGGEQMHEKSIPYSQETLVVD
Description: A blocking strategy was performed on cells expressing the highest level of APJ. This strategy consists in adding a large excess (100-fold) of unconjugated peptide (Apelin13(F13A)) before adding inventors' product of interest. Unspecific tracer was eliminated by several washes. The remaining activity, considered as specifically bound to the target, was evaluated by autoradiography.
T84 cell line (EuroBioDev) was cultivated in DMEM-F12/Glutamax medium complemented with 10% fetal bovine serum decomplemented and 1% antimycotic-antibiotic mix. Cell lines were maintained in a humidified 5% CO2 incubator at 37° C.

[2] = Hydrophilicity, water-octanol partition/distribution coefficient method; type: physicochemical; details: 1-octanol / phosphate-buffered saline pH 7.4
Description: Hydrophilicity of [^67Ga]Ga-AP747 was assessed by the water-octanol partition/distribution coefficient method. In a centrifuge tube, 500 μL of 1-octanol was added to 500 μL of phosphate-buffered saline (pH 7.4) containing the radiolabeled peptide (50 kBq). After equilibrium, the solution was vigorously stirred for 5 min at room temperature and subsequently centrifuged (4000 rpm, 5 min) to yield two immiscible layers. Aliquots of 100 μL were taken from each layer and the radioactivity in the samples was determined by a gamma counter (Perkin Elmer, Waltham, Mass., USA).

APJ receptor, T84 cells = molecular target: T2, APJ receptor, T84 cells (Homo sapiens, UniProt P35414); assay: In vitro internalization study in T84 cells; type: cell-based
T2 construct: host or cells: T84 human colon adenocarcinoma cells
T2 sequence (P35414 1-380): T1 sequence (P35414 1-380)
Description: (§1) T84 cells were cultured as described in saturation binding experiments above.
Three minutes before the end of the incubation time, internalization was stopped on ice and the supernatant was removed. Internalization was then stopped by eliminating the supernatant and each well was washed with 3×250 μL of ice-cold PBS. The membrane-bound fraction was retrieved in 2×250 μL sodium acetate buffer (20 mM, pH 5) for 5 min. Finally, cells were treated with 500 μL of NaOH (1 M). The radioactivity of the membrane-bound fraction and the internalized fraction was measured in a gamma counter. The experiment was performed twice. To also verify receptor specificity, blocking experiments were performed by using 1 μM of apelin-13.

T84 cells = assay: In vitro efflux study on T84 cells; type: cell-based, human
Description: as §1
Three minutes before the end of the incubation time, internalization was stopped on ice and the supernatant was removed. Each well was washed with 1 mL of ice-cold PBS. The membrane-bound fraction was retrieved in 2 mL sodium acetate buffer (20 mM, pH 5) for 2 min, each well was rinsed a second time with 1 mL ice-cold PBS and fresh culture medium was added. At each time point (10, 30, 60 and 120 minutes), the efflux was stopped by collecting the medium and washing cells twice with ice-cold PBS. Finally, cells were treated with NaOH (1 M). The radioactivity of the collected culture medium supernatant, the PBS wash fractions, and the total internalized fraction was measured in a gamma counter. The experiment was performed twice.

[3] = Stability of radiolabelled tracer in human serum; type: in vitro ADME
Description: Determination of radiochemical purity was done by radio-thin-layer chromatography (ITLC-SG) and was performed using a Ray-test miniGITA radio-TLC scanner detector (Straubenhardt, Ge) (eluents, 1:1 [v/v] mixture of 1M aqueous ammonium acetate solution and methanol and also in Trisodium Citrate 0,1M). Evaluation of ^68Ga-NODAGA-Apelin13(F13A) stability was performed in human serum at 60 and 120 min after radiosynthesis.

[4] = MicroPET biodistribution study in healthy mice; type: in vivo; details: IV injection, up to 2 h
Description: For biodistribution study in healthy mice (n=3), images were continuously acquired just after ^68Ga-NODAGA-Apelin13(F13A) IV injection with 5-6 MBq and recorded up to 2 h post injection on a Mediso NanoPET/CT under 2% isoflurane anesthesia.
(§2) Quantitative region-of-interest (ROI) analysis of the PET images was performed on attenuation- and decay-corrected PET images using InVicro—VivoQuant software and tissue uptake values are presented as an ischemic muscle to contralateral muscle ratio and as a percentage of the injected dose per gram of tissue (% ID/g) which was determined by decay correction for each sample normalized to a standard of known weight, which was representative of the injected dose.

Matrigel plug = assay: MicroPET imaging in Matrigel mouse model; type: in vivo, mice
Description: These mice were also subcutaneously implanted with Matrigel (Dutscher) supplemented with 10% fetal bovine serum under 2% isoflurane anesthesia.
(§3) On hindlimb ischemia mouse model (n=8) and Matrigel mouse model (n=7) on day 1, 3, 7, 10, 13 and 21 post-surgery, mice were IV injected with 5-10 MBq of ^68Ga-NODAGA-Apelin13(F13A) under 2% isoflurane anesthesia.
(§4) PET images were acquired 60 min after IV injection on a Mediso Nanoscan PET/CT under 2% isoflurane anesthesia. On hindlimb ischemia mouse model and on day 1, 3, 7, 10, 13 and 21 post-surgery, mice were IV injected with 5-10 MBq of [^68Ga]Ga-NODAGA-RGD2 injection under 2% isoflurane anesthesia. PET images were acquired 60 min after IV injection on a Mediso Nanoscan PET/CT under 2% isoflurane anesthesia.
as §2

ischemic limb = assay: MicroPET imaging in mouse model of hindlimb ischemia; type: in vivo, mice
Description: Unilateral hindlimb ischemia was performed on 9-week-old male Swiss mice (Janvier Labs) after femoral artery excision under 2% isoflurane anesthesia. LASER Doppler perfusion imaging (Perimed, Craponne, France) was used to assess revascularization from day 0 to day 21 after surgery. Perfusion results are expressed as a ratio of ischemic to non-ischemic limb blood flow. Hindlimb ischemic damage was quantified on Days 1, 3, 7, 10, 13 and 21.
as §3, §4, §2

[5] = PET signal ratio on day 7, corrected with non-ischemic limb

Q: With `CSCC[C@H](NC(=O)[C@@H]1CCCN1C(=O)CNC(=O)[C@H](CCCCN)NC(=O)[C@H](Cc1c[nH]cn1)NC(=O)[C@H](CO)NC(=O)[C@H](CC(C)C)NC(=O)[C@H](CCCNC(=N)N)NC(=O)[C@@H]1CCCN1C(=O)[C@H](CCCNC(=N)N)NC(=O)[C@@H](N)CCC(N)=O)C(=O)N1CCC[C@H]1C(=O)N[C@@H](C)C(=O)O` [Apelin13(F13A), reference compound] as the molecule, how does the “tolerance of cold peptide in in vivo blocking experiments” value ([1]; due to cardiovascular effects of Apelin) read?
A: Its value is “bad tolerance”.

Q: For “AP747: AP747 corresponds to NODAGA-Apelin13(F13A); used radiolabelled in the autoradiography”, which “remaining activity recorded by autoradiography in blocking condition compared to classic conditions” value (APJ) is on record?
A: Its value is “significantly reduced”.

Q: With “[^67Ga]Ga-AP747: NODAGA-Apelin13(F13A) radiolabelled with gallium-67, used for in vitro binding, internalization and efflux studies” as the molecule, how does the “log D7.4” value [2] read?
A: The value was −3.03±0.02.

Q: And the “internalized fraction of the cell associated radioactivity (maximum)” value (APJ receptor, T84 cells; 37° C., at 60 min)?
A: Its value is 79.7±7.3%.

Q: What about the “receptor specific membrane-bound fraction” value (APJ receptor, T84 cells; at any time point (10, 30, 60 min)) of the same molecule?
A: The value was under 5%.

Q: And the “efflux: fraction of the total binding externalized” value (T84 cells; 10 minutes post-internalization)?
A: Its value is 66.7±1.7%.

Q: And the “efflux: fraction of the total binding externalized” value (T84 cells; at 2 h)?
A: Its value is 81.2±2.9%.

Q: For “[^68Ga]Ga-NODAGA-Apelin13(F13A): Apelin-13(F13A) peptide (SEQ ID NO: 5) conjugated to chelator NODAGA and radiolabelled with gallium-68; PET tracer of APJ”, which “radiochemical purity after incubation in human serum” value ([3]; human serum, until two hours post-incubation, n=3) is on record?
A: Its value is “didn't lead to significant tampering”.

Q: What about the stability in serum ([3]; serum) of the same molecule?
A: The stability in serum was “up to 2 hours”.

Q: And the “excretion and organ accumulation (PET signal quantification in organs)” value ([4]; n=3)?
A: The value was “fast and mainly urinary excretion without noticeable accumulation in liver, lungs or brain”.

Q: And the “excretion and organ accumulation (PET signal quantification in organs)” value ([4]; n=3, listed as (F13A)Apelin-NODAGA-^68Ga)?
A: The value was “Rapid urinary and hepatic elimination”.

Q: What about the “PET signal in Matrigel compared with [68Ga]Ga-NODAGA-RGD2, globally over experiment period” value (Matrigel plug; day 1 to day 21) of the same molecule?
A: Its value is “significantly superior”.

Q: What about the “accumulation in Matrigel plug compared with [68Ga]Ga-NODAGA-RGD2” value (Matrigel plug; day 10, day 13 and day 21, PET 60 min after IV injection) of the same molecule?
A: Its value is “significantly higher”.

Q: What about the “relation of PET signal in ischemic limb to day-input function (LASER Doppler Day7/Day0)” value (ischemic limb; PET signal on day 7, corrected with non-ischemic limb) of the same molecule?
A: The value was “not linked”.

Q: What about the “correlation of PET signal in ischemic limb with LASER-Doppler signal at day of surgery” value (ischemic limb; [5]) of the same molecule?
A: The value was “significantly negatively correlated”.

Q: And the “relation of PET signal in ischemic limb to reperfusion (LASER-Doppler Day 21/Day 0)” value (ischemic limb; [5])?
A: The value was “more important when reperfusion is longer”.

Q: And the “PET signal in ischemic limb compared with [68Ga]Ga-NODAGA-RGD2” value (ischemic limb; at peak)?
A: The value was “notably better”.

Q: And the “day of peak PET signal in ischemic limb” value (ischemic limb; ischemic limb corrected by non-ischemic limb, post-surgery)?
A: Its value is 7 days.

Q: What about the “partial blocking of PET signal in in vivo blocking experiments” value ([1]; pre-saturation with cold Apelin13(F13A), angiogenic and tumoral models) of the same molecule?
A: Its value is “about 50%”.
